From PubChem BioAssay (NCI)
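All cell lines were grown in 96-well plates and treated with compound for 48 hours. At the TGI there is no net growth.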

Legend:
Assay in all cases: NCI anticancer screen, dose series, 48 h
RXF-631 renal = system: RXF-631 renal
SK-MEL-5 melanoma = system: SK-MEL-5 melanoma
HOP-92 NSCLC = system: HOP-92 NSCLC
HCT-116 colon = system: HCT-116 colon
UO-31 renal = system: UO-31 renal
SK-MEL-28 melanoma = system: SK-MEL-28 melanoma
NCI-H460 lung = system: NCI-H460 lung
HCC-2998 colon = system: HCC-2998 colon
OVCAR-8 ovarian = system: OVCAR-8 ovarian
SW-620 colon = system: SW-620 colon
SR leukemia = system: SR leukemia
KM20L2 colon = system: KM20L2 colon
U251 CNS = system: U251 CNS
SF-295 CNS = system: SF-295 CNS
IGROV1 ovarian = system: IGROV1 ovarian
K-562 leukemia = system: K-562 leukemia
DMS 114 small cell lung = system: DMS 114 small cell lung
M14 melanoma = system: M14 melanoma
SNB-75 CNS = system: SNB-75 CNS
ACHN renal = system: ACHN renal
UACC-62 melanoma = system: UACC-62 melanoma
HOP-18 NSCLC = system: HOP-18 NSCLC
DLD-1 colon = system: DLD-1 colon
RXF 393 renal = system: RXF 393 renal
KM12 colon = system: KM12 colon
NCI-H23 lung = system: NCI-H23 lung
MALME-3M melanoma = system: MALME-3M melanoma
DMS 273 small cell lung = system: DMS 273 small cell lung
NCI-H226 lung = system: NCI-H226 lung
RPMI-8226 leukemia = system: RPMI-8226 leukemia
A498 renal = system: A498 renal
SK-OV-3 ovarian = system: SK-OV-3 ovarian
A549 NSCLC = system: A549 NSCLC
HCT-15 colon = system: HCT-15 colon
SF-268 CNS = system: SF-268 CNS
M19-MEL melanoma = system: M19-MEL melanoma
OVCAR-4 ovarian = system: OVCAR-4 ovarian
SNB-19 CNS = system: SNB-19 CNS
LOX IMVI melanoma = system: LOX IMVI melanoma
786-0 renal = system: 786-0 renal
COLO 205 colon = system: COLO 205 colon
SNB-78 CNS = system: SNB-78 CNS
TK-10 renal = system: TK-10 renal
SN12C renal = system: SN12C renal
HT29 colon = system: HT29 colon
LXFL 529 NSCLC = system: LXFL 529 NSCLC
CAKI-1 renal = system: CAKI-1 renal
EKVX NSCLC = system: EKVX NSCLC
NCI-H522 lung = system: NCI-H522 lung
MOLT-4 leukemia = system: MOLT-4 leukemia
SF-539 CNS = system: SF-539 CNS
HOP-62 NSCLC = system: HOP-62 NSCLC
XF 498 CNS = system: XF 498 CNS
OVCAR-3 ovarian = system: OVCAR-3 ovarian
UACC-257 melanoma = system: UACC-257 melanoma
HL-60(TB) leukemia = system: HL-60(TB) leukemia

Cc1ccc(S(=O)(=O)SCc2ccccc2CSS(=O)(=O)c2ccc(C)cc2)cc1
TGI (RXF-631 renal): > 100 µM
TGI (SK-MEL-5 melanoma): > 100 µM
TGI (HOP-92 NSCLC): 51.7 µM
TGI (HCT-116 colon): 59.6 µM
TGI (UO-31 renal): > 100 µM
TGI (SK-MEL-28 melanoma): 36.6 µM
TGI (NCI-H460 lung): > 100 µM
TGI (HCC-2998 colon): > 100 µM
TGI (OVCAR-8 ovarian): 76.5 µM
TGI (SW-620 colon): 31.8 µM
TGI (SR leukemia): 43.5 µM
TGI (KM20L2 colon): > 100 µM
TGI (U251 CNS): 89.5 µM
TGI (SF-295 CNS): > 100 µM
TGI (IGROV1 ovarian): > 100 µM
TGI (K-562 leukemia): 47 µM
TGI (DMS 114 small cell lung): > 100 µM
TGI (M14 melanoma): 47.3 µM
TGI (SNB-75 CNS): > 100 µM
TGI (ACHN renal): > 100 µM
TGI (UACC-62 melanoma): 31 µM
TGI (HOP-18 NSCLC): > 100 µM
TGI (DLD-1 colon): 30 µM
TGI (RXF 393 renal): 29.6 µM
TGI (KM12 colon): > 100 µM
TGI (NCI-H23 lung): 46.4 µM
TGI (MALME-3M melanoma): > 100 µM
TGI (DMS 273 small cell lung): 44.2 µM
TGI (NCI-H226 lung): > 100 µM
TGI (RPMI-8226 leukemia): 43.1 µM
TGI (A498 renal): > 100 µM
TGI (SK-OV-3 ovarian): > 100 µM
TGI (A549 NSCLC): > 100 µM
TGI (HCT-15 colon): 48.6 µM
TGI (SF-268 CNS): > 100 µM
TGI (M19-MEL melanoma): 60.3 µM
TGI (OVCAR-4 ovarian): 33.9 µM
TGI (SNB-19 CNS): > 100 µM
TGI (LOX IMVI melanoma): 29.4 µM
TGI (786-0 renal): 34.4 µM
TGI (COLO 205 colon): 31.1 µM
TGI (SNB-78 CNS): > 100 µM
TGI (TK-10 renal): > 100 µM
TGI (SN12C renal): 33.6 µM
TGI (HT29 colon): 52.9 µM
TGI (LXFL 529 NSCLC): 32.6 µM
TGI (CAKI-1 renal): 58.5 µM
TGI (EKVX NSCLC): > 100 µM
TGI (NCI-H522 lung): 22.8 µM
TGI (MOLT-4 leukemia): 43.9 µM
TGI (SF-539 CNS): 36.2 µM
TGI (HOP-62 NSCLC): > 100 µM
TGI (XF 498 CNS): 47.4 µM
TGI (OVCAR-3 ovarian): 43.7 µM
TGI (UACC-257 melanoma): > 100 µM
TGI (HL-60(TB) leukemia): 34.7 µM
